Minimal effective concentration data for 9 compounds are collected here from patent US11331369B2, “Endoparasitic depsipeptides” (Zoetis Services LLC, priority 2017, dated 2022).

The subject of this test is microfilariae of Dirofilaria immitis. The test can be described thus: Dirofilaria immitis, Microfilaria (DiMF) In vitro Assay. As to conditions: 72 h, read-out: DiMF Minimum Effective Dose (MED), approximately 72 hours incubation, microfilariae assessed for survival or paralysis. It counts as cell-based.

On to `CC(C)C[C@H]1C(=O)O[C@H](Cc2ccc(Cn3nc(CO)cc3CO)cc2)C(=O)N(C)[C@@H](CC(C)C)C(=O)O[C@H](C)C(=O)N(C)[C@@H](CC(C)C)C(=O)O[C@H](Cc2ccc(Cn3nc(C#N)cc3C#N)cc2)C(=O)N(C)[C@@H](CC(C)C)C(=O)O[C@H](C)C(=O)N1C` [Example 1a-2, 1-(4-(((2R,5S,8R,11S,14R,17S,20R,23S)-14-(4-((3,5-bis(hydroxymethyl)-1H-pyrazol-1-yl)methyl)benzyl)-5,11,17,23-tetraisobutyl-4,8,10,16,20,22-hexamethyl-3,6,9,12,15,18,21,24-octaoxo-1,7,13,19-tetraoxa-4,10,16,22-tetraazacyclotetracosan-2-yl)methyl)benzyl)-1H-pyrazole-3,5-dicarbonitrile], for which the minimal effective concentration is 0.001 to 0.01 µM. In the case of `CC(C)C[C@H]1C(=O)O[C@H](Cc2ccc(Cn3nc(-c4ccco4)cc3CO)cc2)C(=O)N(C)[C@@H](CC(C)C)C(=O)O[C@H](C)C(=O)N(C)[C@@H](CC(C)C)C(=O)O[C@H](Cc2ccc(Cn3nc(C#N)cc3C#N)cc2)C(=O)N(C)[C@@H](CC(C)C)C(=O)O[C@H](C)C(=O)N1C` [Example 1a-3, 1-(4-(((2R,5S,8R,11S,14R,17S,20R,23S)-14-(4-((3-(furan-2-yl)-5-(hydroxymethyl)-1H-pyrazol-1-yl)methyl)benzyl)-5,11,17,23-tetraisobutyl-4,8,10,16,20,22-hexamethyl-3,6,9,12,15,18,21,24-octaoxo-1,7,13,19-tetraoxa-4,10,16,22-tetraazacyclotetracosan-2-yl)methyl)benzyl)-1H-pyrazole-3,5-dicarbonitrile] it was 0.01 to 0.1 µM. On to `CC(C)C[C@H]1C(=O)O[C@H](Cc2ccc(Cn3nc(C4CC4)cc3C3CC3)cc2)C(=O)N(C)[C@@H](CC(C)C)C(=O)O[C@H](C)C(=O)N(C)[C@@H](CC(C)C)C(=O)O[C@H](Cc2ccc(Cn3nc(-c4ccco4)cc3CO)cc2)C(=O)N(C)[C@@H](CC(C)C)C(=O)O[C@H](C)C(=O)N1C` [Example 1a-6, (3S,6R,9S,12R,15S,18R,21S,24R)-6-(4-((3,5-dicyclopropyl-1H-pyrazol-1-yl)methyl)benzyl)-18-(4-((3-(furan-2-yl)-5-(hydroxymethyl)-1H-pyrazol-1-yl)methyl)benzyl)-3,9,15,21-tetraisobutyl-4,10,12,16,22,24-hexamethyl-1,7,13,19-tetraoxa-4,10,16,22-tetraazacyclotetracosan-2,5,8,11,14,17,20,23-octaone], for which the minimal effective concentration fell in the range of 0.01 to 0.1 µM. With `Cc1nn(Cc2ccc(C[C@H]3OC(=O)[C@H](CC(C)C)N(C)C(=O)[C@@H](C)OC(=O)[C@H](CC(C)C)N(C)C(=O)[C@@H](Cc4ccc(Cn5nc(C6CC6)cc5C5CC5)cc4)OC(=O)[C@H](CC(C)C)N(C)C(=O)[C@@H](C)OC(=O)[C@H](CC(C)C)N(C)C3=O)cc2)cc1CO` [Example 1a-8, (3S,6R,9S,12R,15S,18R,21S,24R)-6-(4-((3,5-dicyclopropyl-1H-pyrazol-1-yl)methyl)benzyl)-18-(4-((4-(hydroxymethyl)-3-methyl-1H-pyrazol-1-yl)methyl)benzyl)-3,9,15,21-tetraisobutyl-4,10,12,16,22,24-hexamethyl-1,7,13,19-tetraoxa-4,10,16,22-tetraazacyclotetracosan-2,5,8,11,14,17,20,23-octaone], the minimal effective concentration lay within 0.01 to 0.1 µM.

On to `CC(C)C[C@H]1C(=O)O[C@H](Cc2ccc(Cn3cc(-c4ccccc4)cn3)cc2)C(=O)N(C)[C@@H](CC(C)C)C(=O)O[C@H](C)C(=O)N(C)[C@@H](CC(C)C)C(=O)O[C@H](Cc2ccc(Cn3cccn3)cc2)C(=O)N(C)[C@@H](CC(C)C)C(=O)O[C@H](C)C(=O)N1C` [Example 1a-15, (3S,6R,9S,12R,15S,18R,21S,24R)-6-(4-((1H-pyrazol-1-yl)methyl)benzyl)-3,9,15,21-tetraisobutyl-4,10,12,16,22,24-hexamethyl-18-(4-((4-phenyl-1H-pyrazol-1-yl)methyl)benzyl)-1,7,13,19-tetraoxa-4,10,16,22-tetraazacyclotetracosan-2,5,8,11,14,17,20,23-octaone], for which the minimal effective concentration was in the range of 0.01 to 0.1 µM.

As for `CC(C)C[C@H]1C(=O)O[C@H](Cc2ccc(Cn3cc(-c4ccc(Cl)cc4)cn3)cc2)C(=O)N(C)[C@@H](CC(C)C)C(=O)O[C@H](C)C(=O)N(C)[C@@H](CC(C)C)C(=O)O[C@H](Cc2ccc(Cn3cccn3)cc2)C(=O)N(C)[C@@H](CC(C)C)C(=O)O[C@H](C)C(=O)N1C` [Example 1a-18, (3S,6R,9S,12R,15S,18R,21S,24R)-6-(4-((1H-pyrazol-1-yl)methyl)benzyl)-18-(4-((4-(4-chlorophenyl)-1H-pyrazol-1-yl)methyl)benzyl)-3,9,15,21-tetraisobutyl-4,10,12,16,22,24-hexamethyl-1,7,13,19-tetraoxa-4,10,16,22-tetraazacyclotetracosan-2,5,8,11,14,17,20,23-octaone], the minimal effective concentration lay in the range of 0.01 to 0.1 µM. In the case of `Cc1cnn(Cc2ccc(C[C@H]3OC(=O)[C@H](CC(C)C)N(C)C(=O)[C@@H](C)OC(=O)[C@H](CC(C)C)N(C)C(=O)[C@@H](Cc4ccc(Cn5cc(-c6ccccc6)cn5)cc4)OC(=O)[C@H](CC(C)C)N(C)C(=O)[C@@H](C)OC(=O)[C@H](CC(C)C)N(C)C3=O)cc2)c1` [Example 1a-19, (3S,6R,9S,12R,15S,18R,21S,24R)-3,9,15,21-tetraisobutyl-4,6,10,16,18,22-hexamethyl-12-(4-((4-methyl-1H-pyrazol-1-yl)methyl)benzyl)-24-(4-((4-phenyl-1H-pyrazol-1-yl)methyl)benzyl)-1,7,13,19-tetraoxa-4,10,16,22-tetraazacyclotetracosan-2,5,8,11,14,17,20,23-octaone] it was 0.01 to 0.1 µM; in that of `Cc1cnn(Cc2ccc(C[C@H]3OC(=O)[C@H](CC(C)C)N(C)C(=O)[C@@H](C)OC(=O)[C@H](CC(C)C)N(C)C(=O)[C@@H](Cc4ccc(Cn5cc(-c6ccc(F)cc6)cn5)cc4)OC(=O)[C@H](CC(C)C)N(C)C(=O)[C@@H](C)OC(=O)[C@H](CC(C)C)N(C)C3=O)cc2)c1` [Example 1a-22, (3S,6R,9S,12R,15S,18R,21S,24R)-6-(4-((4-(4-fluorophenyl)-1H-pyrazol-1-yl)methyl)benzyl)-3,9,15,21-tetraisobutyl-4,10,12,16,22,24-hexamethyl-18-(4-((4-methyl-1H-pyrazol-1-yl)methyl)benzyl)-1,7,13,19-tetraoxa-4,10,16,22-tetraazacyclotetracosan-2,5,8,11,14,17,20,23-octaone], 0.01 to 0.1 µM; in that of `Cc1cnn(Cc2ccc(C[C@H]3OC(=O)[C@H](CC(C)C)N(C)C(=O)[C@@H](C)OC(=O)[C@H](CC(C)C)N(C)C(=O)[C@@H](Cc4ccc(Cn5nc(C)c(S(=O)(=O)N6CCCC6)c5C)cc4)OC(=O)[C@H](CC(C)C)N(C)C(=O)[C@@H](C)OC(=O)[C@H](CC(C)C)N(C)C3=O)cc2)c1` [Example 1a-23, (3S,6R,9S,12R,15S,18R,21S,24R)-6-(4-((3,5-dimethyl-4-(pyrrolidin-1-ylsulfonyl)-1H-pyrazol-1-yl)methyl)benzyl)-3,9,15,21-tetraisobutyl-4,10,12,16,22,24-hexamethyl-18-(4-((4-methyl-1H-pyrazol-1-yl)methyl)benzyl)-1,7,13,19-tetraoxa-4,10,16,22-tetraazacyclotetracosan-2,5,8,11,14,17,20,23-octaone], 0.01 to 0.1 µM.
